Assay results taken from ChEMBL document CHEMBL1134415, “Potent and selective ET-A antagonists. 2. Discovery and evaluation of potent and water soluble N-(6-(2-(aryloxy)ethoxy)-4-pyrimidinyl)sulfonamide derivatives” (J Med Chem, 2001).

Assays:
[1] = Ability to inhibit specific binding of [125I]- -ET-1 to rat A 10 cells which express endothelin A receptor
Endothelin-1 receptor [2] = molecular target: T1, Endothelin-1 receptor (Homo sapiens, UniProt P25101); experiment: Ability to inhibit [125I]ET1 binding to human cloned endothelin A receptor expressed on CHO cells; type: cell-based
T1 sequence (P25101 whole entry): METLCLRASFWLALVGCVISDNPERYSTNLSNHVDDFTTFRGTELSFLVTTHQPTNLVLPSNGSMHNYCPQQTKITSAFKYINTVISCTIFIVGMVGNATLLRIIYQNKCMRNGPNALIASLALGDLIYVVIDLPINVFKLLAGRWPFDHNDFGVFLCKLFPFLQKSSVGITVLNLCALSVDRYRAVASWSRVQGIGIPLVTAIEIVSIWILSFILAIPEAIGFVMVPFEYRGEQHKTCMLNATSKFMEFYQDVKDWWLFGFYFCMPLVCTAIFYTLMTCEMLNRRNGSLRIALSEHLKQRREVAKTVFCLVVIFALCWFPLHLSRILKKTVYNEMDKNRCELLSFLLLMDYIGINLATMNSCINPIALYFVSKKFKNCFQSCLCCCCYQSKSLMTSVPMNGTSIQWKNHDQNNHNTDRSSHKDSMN

Endothelin-1 receptor [3] = molecular target: T2, Endothelin-1 receptor (Sus scrofa, UniProt Q29010); experiment: Ability to inhibit [125I]ET1 binding to endothelin A receptor in porcine aortic membrane; type: cell membranes
T2 sequence (Q29010 whole entry): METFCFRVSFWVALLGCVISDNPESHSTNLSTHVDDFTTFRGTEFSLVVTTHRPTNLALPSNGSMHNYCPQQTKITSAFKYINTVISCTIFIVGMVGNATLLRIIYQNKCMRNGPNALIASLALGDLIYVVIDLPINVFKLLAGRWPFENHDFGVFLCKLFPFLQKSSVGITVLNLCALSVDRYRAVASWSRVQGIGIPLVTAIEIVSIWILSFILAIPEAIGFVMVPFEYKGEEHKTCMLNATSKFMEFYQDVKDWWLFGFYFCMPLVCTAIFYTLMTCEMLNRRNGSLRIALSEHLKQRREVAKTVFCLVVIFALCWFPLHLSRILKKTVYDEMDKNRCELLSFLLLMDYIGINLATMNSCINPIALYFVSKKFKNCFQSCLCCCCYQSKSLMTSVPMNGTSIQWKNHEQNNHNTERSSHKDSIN

[4] = molecular target: T3, Endothelin receptor type B (Homo sapiens, UniProt P24530); experiment: Ability to inhibit [125I]-ET-1 binding to human cloned ETB receptors expressed on CHO cells; type: cell-based
T3 sequence (P24530 whole entry): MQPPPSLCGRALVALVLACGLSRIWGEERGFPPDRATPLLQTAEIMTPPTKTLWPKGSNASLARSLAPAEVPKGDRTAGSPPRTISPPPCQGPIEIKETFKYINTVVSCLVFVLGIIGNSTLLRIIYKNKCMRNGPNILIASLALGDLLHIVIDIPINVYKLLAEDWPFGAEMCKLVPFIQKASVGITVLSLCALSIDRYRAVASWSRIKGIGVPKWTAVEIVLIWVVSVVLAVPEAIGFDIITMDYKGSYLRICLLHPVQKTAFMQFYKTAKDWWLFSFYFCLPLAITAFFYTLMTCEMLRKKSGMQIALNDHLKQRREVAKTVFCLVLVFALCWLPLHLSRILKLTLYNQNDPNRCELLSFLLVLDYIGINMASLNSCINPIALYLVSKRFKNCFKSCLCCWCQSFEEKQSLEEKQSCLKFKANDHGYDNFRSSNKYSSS

[5] = molecular target: T3, Endothelin receptor type B; experiment: Ability to inhibit specific binding of [125I]- -ET-1 to human GH cells which express endothelin B receptor; type: cell-based

IC50 (Endothelin-1 receptor [3]) [nM]	further results	Compound
< 0.001	IC50 [1]: 0.039 nM; Ki (Endothelin-1 receptor [2]): 0.0042 nM; Ki [4]: 130 nM	Cc1ccc(-c2c(NS(=O)(=O)c3ccc(C(C)(C)C)cc3)ncnc2OCCOc2ncc(Br)cn2)cc1
0.04	–	CSc1cnc(OCCOc2ncnc(NS(=O)(=O)c3ccc(C(C)(C)C)cc3)c2-c2ccc(CO)cc2)nc1
1.4	–	Cc1ccc(-c2c(NS(=O)(=O)c3ccc(C(C)(C)C(=O)O)cc3)ncnc2OCCOc2ncc(Br)cn2)cc1
> 10	–	CSc1cnc(OCCOc2ncnc(NS(=O)(=O)c3ccc(C(C)(C)C)cc3)c2-c2ccc(C(=O)O)cc2)nc1
< 0.001	–	CSc1cnc(OCCOc2ncnc(NS(=O)(=O)c3ccc(C(C)(C)C)cc3)c2-c2ccc(C)cc2)nc1
–	IC50 [5]: 31 nM	Cc1ccc(-c2c(NS(=O)(=O)c3ccc(C(C)(C)C)cc3)ncnc2OCCOc2ncc(CO)cn2)cc1
0.04	–	CC(C)(C)c1ccc(S(=O)(=O)Nc2ncnc(OCCOc3ncc(Br)cn3)c2-c2ccc(CO)cc2)cc1
> 10	–	Cc1ccc(-c2c(NS(=O)(=O)c3ccc(C(C)(C)C)cc3)ncnc2OCCOc2ncc(C(=O)O)cn2)cc1
